The values that follow come from PMC2747480 (Journal of medicinal chemistry, 2009).

Data set [1] has as its system Bax/Bak double knockout MEF cells (DKO/MEFs). Description: Bax/Bak double knockout MEF cytotoxicity, FITC-Annexin V/PI assay. It counts as cell-based, mouse. The settings on record: 10 μM, result in words.
Data set [2] in a line: chemical stability as solid powder at room temperature. It counts as physicochemical. As to conditions: in air, no ascorbic acid.
The nature of data set [3]: in vitro plasma stability.
Data set [4] can be described thus: in vitro microsomal stability. The settings on record: rat microsomes.
The conditions of data set [5]: result in words; cited from earlier work.
In the next data set the target is GST–Bcl-XL ΔTM protein (Homo sapiens, UniProt Q07817). The experiment in a line: competitive fluorescence polarization assay. It is filed as binding. As to conditions: relative to compound 2. In general terms: In fluorescence polarisation assays a small probe gives low polarisation when free and higher when bound to something large.
The target of the next data set is GST-Bcl-2 (Homo sapiens, UniProt P10415). Description: competitive fluorescence polarization assay. It is filed as binding. The settings on record: relative to compound 2.
Another data set has as its target GST-Mcl-1 (Homo sapiens, UniProt Q07820). The experiment in a line: competitive fluorescence polarization assay. The settings on record: relative to compound 2. It counts as binding.
Another data set concerns the target T1, Bfl-1 (Homo sapiens, UniProt Q16548).
T1 sequence (Q16548 1-175): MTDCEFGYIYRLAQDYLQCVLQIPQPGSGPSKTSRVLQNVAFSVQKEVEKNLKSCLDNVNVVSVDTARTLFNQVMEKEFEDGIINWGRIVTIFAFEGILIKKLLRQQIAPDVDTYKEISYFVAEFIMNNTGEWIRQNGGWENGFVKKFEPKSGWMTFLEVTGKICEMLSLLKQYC
Description: competitive fluorescence polarization assay. It is filed as binding. The settings on record: relative to compound 2.

A further data set concerns the target Bcl-XL (Homo sapiens, UniProt Q07817). Description: Isothermal Titration Calorimetry. The settings on record: relative to compound 2. It is filed as binding.
The conditions of data set [6]: single dose of 100, 75, 50 and 25 mg/kg ip, 14 days, result in words.
The subject of the next data set is Bcl-2 transgenic mice. The experiment in a line: spleen weight reduction in Bcl-2 transgenic mice. It is filed as in vivo, mouse. The settings on record: single ip injection, 72 μmol/kg, result in words.
Another data set concerns RS11846 cells. The experiment in a line: RS11846 apoptosis, Annexin V-FITC and propidium iodide assay. The settings on record: result in words.
For the next data set, the system named is BP3 cells. The experiment in a line: BP3 cells, Annexin V-FITC and propidium iodide assay. As to conditions: result in words.

Entries after “also recorded” stand apart in the source; their conditions may differ.

Sequence of GST–Bcl-XL ΔTM protein (Q07817 1-209 limits assumed, stated change not applied): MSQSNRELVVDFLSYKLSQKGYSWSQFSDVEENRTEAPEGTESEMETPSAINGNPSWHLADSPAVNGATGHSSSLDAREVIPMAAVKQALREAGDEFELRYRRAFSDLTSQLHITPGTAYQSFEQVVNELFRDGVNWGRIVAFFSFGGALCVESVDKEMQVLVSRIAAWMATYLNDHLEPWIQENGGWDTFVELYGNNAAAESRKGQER
Sequence of Bcl-XL (Q07817 whole entry): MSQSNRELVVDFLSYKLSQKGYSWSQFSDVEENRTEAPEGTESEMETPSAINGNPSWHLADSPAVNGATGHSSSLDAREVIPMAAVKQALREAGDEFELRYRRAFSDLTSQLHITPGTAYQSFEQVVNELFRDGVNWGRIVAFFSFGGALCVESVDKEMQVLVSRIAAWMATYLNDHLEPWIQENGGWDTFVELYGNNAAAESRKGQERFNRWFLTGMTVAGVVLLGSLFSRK
Sequence of GST-Mcl-1 (Q07820 whole entry): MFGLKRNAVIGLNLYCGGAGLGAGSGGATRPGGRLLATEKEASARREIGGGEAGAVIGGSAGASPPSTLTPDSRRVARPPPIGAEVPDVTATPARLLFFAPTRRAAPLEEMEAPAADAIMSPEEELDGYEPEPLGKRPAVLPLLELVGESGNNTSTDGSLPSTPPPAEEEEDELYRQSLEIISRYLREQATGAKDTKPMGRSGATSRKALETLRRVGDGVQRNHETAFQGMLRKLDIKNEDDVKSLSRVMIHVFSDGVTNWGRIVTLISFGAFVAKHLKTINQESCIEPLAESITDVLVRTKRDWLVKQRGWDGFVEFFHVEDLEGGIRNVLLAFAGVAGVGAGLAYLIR
Sequence of GST-Bcl-2 (P10415 whole entry): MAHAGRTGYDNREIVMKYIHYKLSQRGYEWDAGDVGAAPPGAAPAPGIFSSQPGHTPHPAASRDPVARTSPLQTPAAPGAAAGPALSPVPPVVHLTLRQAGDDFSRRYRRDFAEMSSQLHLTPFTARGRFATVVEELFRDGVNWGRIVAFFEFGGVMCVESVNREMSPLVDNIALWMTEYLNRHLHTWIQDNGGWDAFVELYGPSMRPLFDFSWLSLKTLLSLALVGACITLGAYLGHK

As for `Cc1cc2c(C(C)C)c(O)c(O)c(C=O)c2c(O)c1-c1c(C)cc2c(C(C)C)c(O)c(O)c(C=O)c2c1O` [Compound 1, 1,1′,6,6′,7,7′-Hexahydroxy-5,5′-diisopropyl-3,3′-dimethyl-2,2′-binaphthyl-8,8′-dicarboxaldehyde, reference compound], the “killing of DKO/MEFs (bax−/−bak−/− cells)” value in data set [1] was “equally effective in killing both wt MEFs and MEF/DKOs”.

On to `Cc1cc2c(C(C)C)c(O)c(O)cc2c(O)c1-c1c(C)cc2c(C(C)C)c(O)c(O)cc2c1O` [Compound 2, 5,5′-Diisopropyl-1,1′,6,6′,7,7′-hexahydroxy-3,3′-dimethyl-2,2′-binaphthalene, reference compound], for which, in data set [1], the “killing of DKO/MEFs (bax−/−bak−/− cells)” value was “reduced cytotoxicity against MEF/DKOs”. In addition, the “degraded after 60 days at room temperature” value (shortened to “degraded after 60 days”) in data set [2] was roughly 80%. In [3], the “degraded after 1 h incubation in rat plasma” value (“degraded … in rat plasma” below) was 47%. Also, in [4], the “degraded after 1 h incubation in rat microsomal preparations” value (from here on “degraded … in rat microsomal preparations”) is 36%.

Consider `Cc1cc2c(C(=O)Cc3ccccc3)c(O)c(O)cc2c(O)c1-c1c(C)cc2c(C(=O)Cc3ccccc3)c(O)c(O)cc2c1O` [Compound 3], for which the “GI toxicity in mice” value in [5] is listed as “mild GI toxicity”.

Regarding `Cc1cc2c(C(=O)NC(C)c3ccc(Cl)cc3)c(O)c(O)cc2c(O)c1-c1c(C)cc2c(C(=O)NC(C)c3ccc(Cl)cc3)c(O)c(O)cc2c1O` (stereo not shown) [Compound 8k, N^5,N^5′-Bis(1-(4-chlorophenyl)ethyl)-1,1′,6,6′,7,7′-hexahydroxy-3,3′-dimethyl-2,2′-binaphthyl-5,5′-dicarboxamide], the “killing of DKO/MEFs (bax−/−bak−/− cells)” value in data set [1] is “ineffective”.

Take `Cc1cc2c(C(=O)NCC3CCCCC3)c(O)c(O)cc2c(O)c1-c1c(C)cc2c(C(=O)NCC3CCCCC3)c(O)c(O)cc2c1O` [Compound 8m, N^5,N^5′-Bis(cyclohexylmethyl)-1,1′,6,6′,7,7′-hexahydroxy-3,3′-dimethyl-2,2′-binaphthyl-5,5′-dicarboxamide]: in data set [1], the “killing of DKO/MEFs (bax−/−bak−/− cells)” value is “ineffective”. Also, the “degraded … in rat plasma” value in data set [3] was 11%. The “degraded … in rat microsomal preparations” value in data set [4] is reported as 10%.

As to `Cc1cc2c(C(=O)NCCc3cccc(Cl)c3)c(O)c(O)cc2c(O)c1-c1c(C)cc2c(C(=O)NCCc3cccc(Cl)c3)c(O)c(O)cc2c1O` [Compound 8p, N^5,N^5′-Bis(3-chlorophenethyl)-1,1′,6,6′,7,7′-hexahydroxy-3,3′-dimethyl-2,2′-binaphthyl-5,5′-dicarboxamide], in [1], the “killing of DKO/MEFs (bax−/−bak−/− cells)” value is “ineffective”.

For `CCc1ccc(CCNC(=O)c2c(O)c(O)cc3c(O)c(-c4c(C)cc5c(C(=O)NCCc6ccc(CC)cc6)c(O)c(O)cc5c4O)c(C)cc23)cc1` [Compound 8q, N^5,N^5′-Bis(4-ethylphenethyl)-1,1′,6,6′,7,7′-hexahydroxy-3,3′-dimethyl-2,2′-binaphthyl-5,5′-dicarboxamide], the “killing of DKO/MEFs (bax−/−bak−/− cells)” value in [1] is reported as “ineffective”. Moreover, the “degraded after 60 days” value in [2] is given as 10%.

For `Cc1cc2c(C(=O)NCC(C)c3ccccc3)c(O)c(O)cc2c(O)c1-c1c(C)cc2c(C(=O)NCC(C)c3ccccc3)c(O)c(O)cc2c1O` (stereo not shown) [Compound 8r, 1,1′,6,6′,7,7′-Hexahydroxy-3,3′-dimethyl-N^5,N^5′-bis(2-phenylpropyl)-2,2′-binaphthyl-5,5′-dicarboxamide], at GST–Bcl-XL ΔTM protein, the “times more effective than 2, FP displacement Bcl-XL” value came to 5 times. The “times higher potency than compound 2, FP Bcl-2” value on GST-Bcl-2 is “approximately 10 times”. Moreover, the “times higher potency than compound 2, FP Mcl-1” value on GST-Mcl-1 is “approximately 10 times”. Further, at Bfl-1, the “times higher potency than compound 2, FP Bfl-1” value is “approximately 10 times”. At Bcl-XL, the “times more potent than compound 2, ITC Bcl-XL” value is on record as 15 times. In addition, the “killing of DKO/MEFs (bax−/−bak−/− cells)” value in [1] was “ineffective; also recorded: little cytotoxicity”. The “degraded after 60 days” value in data set [2] is 10%. In data set [6], the mortality entry was “All mice were alive after 14 days”. The “degraded … in rat plasma” value in data set [3] was determined as 4%. Also, in data set [4], the “degraded … in rat microsomal preparations” value is on record as 24%.

For the compound `Cc1cc2c(CC3CCCC3)c(O)c(O)cc2c(O)c1-c1c(C)cc2c(CC3CCCC3)c(O)c(O)cc2c1O` [Compound 12c, 5,5′-Bis(cyclopentylmethyl)-3,3′-dimethyl-2,2′-binaphthyl-1,1′,6,6′,7,7′-hexaol], in the data set with Bcl-2 transgenic mice, the “in vivo activity in Bcl-2 transgenic mice” value was “lower in vivo activity”.

`Cc1cc2c(CCc3ccccc3)c(O)c(O)cc2c(O)c1-c1c(C)cc2c(CCc3ccccc3)c(O)c(O)cc2c1O` [Compound 12e, 3,3′-Dimethyl-5,5′-diphenethyl-2,2′-binaphthyl-1,1′,6,6′,7,7′-hexaol]: the “in vivo activity in Bcl-2 transgenic mice” value with Bcl-2 transgenic mice is on record as “lower in vivo activity”.

Turning to `Cc1cc2cc(O)c(O)cc2c(O)c1-c1c(C)cc2cc(O)c(O)cc2c1O` [Compound 13, 3,3′-Dimethyl-2,2′-binaphthyl-1,1′,6,6′,7,7′-hexaol], the “induction of apoptosis of the RS11846 cell line” value with RS11846 cells is reported as “little or no apoptosis”.

`Cc1cc2c(C(=O)O)c(O)c(O)cc2c(O)c1-c1c(C)cc2c(C(=O)O)c(O)c(O)cc2c1O` [Compound 14, 1,1′,6,6′,7,7′-Hexahydroxy-3,3′-dimethyl-2,2′-binaphthyl-5,5′-dicarboxylic acid]: the “induction of apoptosis of the RS11846 cell line” value in the data set on RS11846 cells was “little or no apoptosis”.

As to `CN(C)CC[C@H](CSc1ccccc1)Nc1ccc(S(=O)(=O)NC(=O)c2ccc(N3CCN(Cc4ccccc4-c4ccc(Cl)cc4)CC3)cc2)cc1[N+](=O)[O-]` [Compound 15], the “cytotoxic activity against BP3 cell lines” value in the data set on BP3 cells was “no cytotoxic activity”.
